Experimental data reported in patent publication US4230708A (priority 1977, dated 1980).
≈ marks a conversion by molar mass, not a printed value. Where two headings read alike, the source gives them in different places.

Key:
[1] = tested on: VSV, vaccinia and herpes simplex-1 (KOS); type: cell-based, vaccinia and herpes simplex-1 (KOS) viruses; settings: for Antiviral activity of congeners: at 100 μg/ml (the highest level tested), PRK cells; for Antiviral activity of enantiomers and racemate: VSV/PRK, vaccinia/PRK, herpes simplex-1 (KOS)/PRK
[2] = tested on: Vaccinia; experiment: microbe, parasite or virus in culture; type: cell-based; settings: Orthopoxvirus vaccinia, read-out: ID50
[3] = tested on: Vesicular stomatitis; experiment: microbe, parasite or virus in culture; type: cell-based; settings: read-out: ID50
[4] = tested on: Polio-1; experiment: microbe, parasite or virus in culture; type: cell-based, polio virus type 1; settings: read-out: ID50
[5] = tested on: Coxsackie B-4; type: cell-based, Coxsackie B-4 virus; settings: HeLa cells; 100 CCID50; read-out: ID50 (the source's name)
Experimental: The antiviral activity of (S)-DHPA was explored in a variety of cell cultures and with a variety of DNA and RNA viruses such as listed in Table 1. The cells of each cell culture were inoculated with a certain virus in a dose of about 100 CCID50, that is about 100 times the dose needed to infect 50% of the cells. One hour after inoculation, (S)-DHPA was added in varying doses from zero to 40 μg/ml and sometimes to more than 200 μg/ml. For each virus-cell system, the ID50 of (S)-DHPA, that is the dose of (S)-DHPA needed to suppress the cytopathic effect of the virus by 50%, was determined. This cytopathic effect (CPE) was measured in the untreated virus-infected cell cultures [(S)-DHPA dose 0] and recorded as soon as it reached completion (according to the method described by L. J. Rosenthal and I. L. Shechmaister, in "Tissue Culture", page 510, Academic Press, New York, 1973).

[6] = tested on: Measles; experiment: microbe, parasite or virus in culture; type: cell-based; settings: Measles morbillivirus, Vero; read-out: ID50 (the source's name)
[7] = tested on: Sindbis; experiment: microbe, parasite or virus in culture; type: cell-based; settings: BHK, read-out: ID50 (the source's name)
[8] = tested on: vesicular stomatitis virus; experiment: microbe, parasite or virus in culture; type: cell-based; settings: HSF, read-out: Decrease of virus titer compared with control
[9] = tested on: vesicular stomatitis virus; type: in vivo, NMRI mice; settings: for Final number of surviving mice: control 37.5%
[10] = Acute toxicity in mice; type: in vivo
[11] = molecular target: adenosine deaminase (Bos taurus, UniProt P56658); experiment: Deamination of ara-A by adenosine deaminase of calf intestinal mucosa (FIG. 3, FIG. 4); type: biochemical; settings: for Decrease in absorbance at 265 nm (extent of deamination): FIG. 3A
Experimental: FIG. 3 is a graphical representation showing the inhibitory effect of (S)-DHPA on deamination of ara-A by adenosine deaminase of calf intestinal mucosa. Deamination of ara-A was measured according to the method of Kalckar (compare J. Biol. Chem., 167, 461, […]), modified by Trams and Lauter (compare Biochem. J., 152, 681, 1975). The extent of deamination is equivalent to the decrease of absorbance at λ (wavelength)=265 nm. The decrease in absorbance at 265 nm was 0.11 if 50 nmol of ara-A were used, and was 0.16 if 100 nmol of ara-A were used (FIG. 3A).

[12] = tested on: vaccinia virus; type: cell-based; settings: for Virus yield: (S)-DHPA 30 μg/ml, ara-A 3 μg/ml, or both
[13] = Stability; type: physicochemical
[14] = tested on: DNA viruses; RNA viruses; settings: known from literature; cited from earlier work
[15] = cited from earlier work
[16] = repeated doses of 0.4 mg/mouse (about 27 mg/kg)
[17] = 1 day after infection, control 3.6
[18] = 2 days after infection, control 5.0
[19] = 3 days after infection, control 5.3

Chain of adenosine deaminase (P56658 whole entry): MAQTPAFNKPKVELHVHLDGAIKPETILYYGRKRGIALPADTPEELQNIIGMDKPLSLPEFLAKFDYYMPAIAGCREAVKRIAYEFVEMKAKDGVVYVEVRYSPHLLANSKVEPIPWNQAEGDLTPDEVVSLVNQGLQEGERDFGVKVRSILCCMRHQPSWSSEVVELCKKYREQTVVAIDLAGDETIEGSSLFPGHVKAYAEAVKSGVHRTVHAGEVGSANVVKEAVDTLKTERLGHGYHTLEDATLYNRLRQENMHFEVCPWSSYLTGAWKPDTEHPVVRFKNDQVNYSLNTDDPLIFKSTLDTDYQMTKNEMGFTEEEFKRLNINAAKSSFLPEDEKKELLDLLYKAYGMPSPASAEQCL

Nc1ncnc2c1ncn2CCCO [9-(3-hydroxypropyl)adenine]
Antiviral activity of congeners [1]: did not demonstrate an antiviral activity

Nc1ncnc2c1ncn2C[C@@H](O)CO [(R)-DHPA]
Antiviral activity of enantiomers and racemate ([1]; listed as R-enantiomeric form): not

Cc1cn(C[C@H](O)CO)c(=O)[nH]c1=O [S-1-(2,3-dihydroxypropyl)thymine]
Antiviral activity of congeners [1]: did not demonstrate an antiviral activity

O=c1ccn(CCC(O)CCO)c(=O)[nH]1 (racemic) [RS-1-(3,5-dihydroxypentyl)uracil]
Antiviral activity of congeners [1]: did not demonstrate an antiviral activity

CC(O)Cn1cnc2c(N)ncnc21 (racemic) [RS-9-(2-hydroxypropyl)adenine]
Antiviral activity of congeners [1]: did not demonstrate an antiviral activity

Nc1ncnc2c1ncn2CCO [9-(2-hydroxyethyl)adenine]
Antiviral activity of congeners [1]: did not demonstrate an antiviral activity

O=c1ccn(C[C@H](O)CO)c(=O)[nH]1 [S-1-(2,3-dihydroxypropyl)uracil]
Antiviral activity of congeners [1]: did not demonstrate an antiviral activity

Cc1c[nH]c(=O)n(C[C@H](O)CO)c1=O [S-3-(2,3-dihydroxypropyl)thymine]
Antiviral activity of congeners [1]: did not demonstrate an antiviral activity

Nc1ncnc2c1ncn2C[C@H](O)[C@@H](O)CO (relative stereo) [RS-threo-9-(2,3,4-trihydroxybutyl)adenine]
Antiviral activity of congeners [1]: did not demonstrate an antiviral activity

Nc1ncnc2c1ncn2C[C@H](O)CO [(S)-DHPA, (S)-9-(2,3-dihydroxypropyl)adenine]
EC50 ([2]; Skin fibroblast): 10 to 20 µg/mL (≈ 47.8 to 95.6 µM)
EC50 ([2]; in Oryctolagus cuniculus): 10 to 20 µg/mL (≈ 47.8 to 95.6 µM)
EC50 ([3]; HSF): 2 to 7 µg/mL (≈ 9.56 to 33.5 µM)
EC50 ([3]; HeLa): > 200 µg/mL
EC50 ([3]; PRK): 7 to 10 µg/mL (≈ 33.5 to 47.8 µM)
EC50 ([4]; HSF): > 200 µg/mL
EC50 ([4]; HeLa): > 200 µg/mL
EC50 [5]: > 200 µg/mL
EC50 [6]: 4 to 40 µg/mL (≈ 19.1 to 191 µM)
EC50 [7]: > 200 µg/mL
log reduction at 100 µg/mL ([8]; 24 h): ~4
log reduction at 100 µg/mL ([8]; 48 h): ~4
Final number of surviving mice ([9]; 2 mg/mouse (about 133 mg/kg) i.p. at 1 h and 1, 2, 3, 4 days): 67%
Increase in final number of surviving mice vs control ([9]; 2 mg/mouse i.p., repeated): significant increase
Difference in number of survivors at 9 days vs control ([9]; 2 mg/mouse i.p., repeated, 9 days after infection): significant
Protection ([9]; repeated doses of 0.08 mg/mouse (about 5.4 mg/kg)): did not confer protection
Protection [9, 16]: slight protection
Final number of surviving mice [9, 16]: 55%
Survival in acute toxicity test (LD50 could not be determined) ([10]; doses up to 1000 mg/kg/day for 3 to 5 days): all mice survived (without any sign of illness)
Acute toxicity ([10]; general statement): very low acute toxicity
Antiviral activity of enantiomers and racemate [1]: active
Concentration dependence of inhibition of ara-A deamination ([11]; absorbance decrease at 265 nm): inhibited proportionally to the concentration of (S)-DHPA
Inhibition of deamination of ara-A ([11]; adenosine deaminase extracted from calf intestinal mucosa): strongly inhibited
Virus yield [12, 17]: 3.6 log10 PFU/ml
Virus yield [12, 18]: 4.9 log10 PFU/ml
Virus yield [12, 19]: 5.4 log10 PFU/ml
Potentiation of antiviral activity of ara-A ([12]; PRK cells, vaccinia virus): markedly potentiated the antiviral activity of ara-A
Stability in pure form [13]: practically unlimited
Stability (thermic sterilization of neutral, weakly acid or weakly alkaline solutions possible) [13]: remarkable stability

Nc1ncnc2c1ncn2CCC(O)CO (racemic) [RS-9-(3,4-dihydroxybutyl)-adenine]
Antiviral activity of congeners [1]: did not demonstrate an antiviral activity

Nc1ncnc2c1ncn2CCC(O)CCO (racemic) [RS-9-(3,5-dihydroxypentyl)adenine]
Antiviral activity of congeners [1]: did not demonstrate an antiviral activity

O=c1[nH]cnc2c1ncn2C[C@H](O)CO [S-9-(2,3-dihydroxypropyl)hypoxanthine]
Antiviral activity of congeners [1]: did not demonstrate an antiviral activity

Cc1cn(C[C@@H](O)CO)c(=O)[nH]c1=O [R-1-(2,3-dihydroxypropyl)-thymine]
Antiviral activity of congeners [1]: did not demonstrate an antiviral activity

O=c1ccn(CC[C@H](O)CO)c(=O)[nH]1 [S-1-(3,4-dihydroxybutyl)-racil]
Antiviral activity of congeners [1]: did not demonstrate an antiviral activity

Nc1ncnc2c1ncn2CC(N)C(=O)O (racemic) [9-(β-DL-alanyl)-adenine]
Antiviral activity of congeners [1]: did not demonstrate an antiviral activity

Nc1ncnc2c1ncn2C(CO)CO [2-(9-adeninyl)propane-1,3-diol]
Antiviral activity of congeners [1]: did not demonstrate an antiviral activity

NCCn1cnc2c(N)ncnc21 [9-(2-aminoethyl)adenine]
Antiviral activity of congeners [1]: did not demonstrate an antiviral activity

NC(=O)c1ncn([C@@H]2O[C@H](CO)[C@@H](O)[C@H]2O)n1 [ribavirin, (1-beta-D-ribofuranosyl)-1,2,4-triazole-3-carboxamide]
Antiviral activity [14]: broad-spectrum antiviral activity
Safety margin ([15]; known from literature): rather narrow safety margin
Toxicity ([15]; known): high toxicity

Nc1ncnc2c1ncn2CC(O)CO (racemic) [(RS)-DHPA, (RS)-9-(2,3-dihydroxypropyl)adenine]
Antiviral activity of enantiomers and racemate [1]: almost as effective as the (S)-enantiomer
Antiviral activity of enantiomers and racemate ([1]; listed as RS-form): almost as effective as the S-form
Stability in pure form [13]: practically unlimited
Stability (thermic sterilization of neutral, weakly acid or weakly alkaline solutions possible) [13]: remarkable stability

Nc1ncnc2c1ncn2CC[C@H](O)CO [S-9-(3,4-dihydroxybutyl)adenine]
Antiviral activity of congeners [1]: did not demonstrate an antiviral activity

Nc1ncnc2c1ncn2[C@@H]1O[C@H](CO)[C@@H](O)[C@@H]1O [ara-A, 9-(beta-D-arabinofuranosyl)-adenine, reference compound]
Decrease in absorbance at 265 nm (extent of deamination) ([11]; 50 nmol of ara-A): 0.11
Decrease in absorbance at 265 nm (extent of deamination) ([11]; 100 nmol of ara-A): 0.16
Virus yield [12, 17]: 2.1 log10 PFU/ml
Virus yield [12, 18]: 4.0 log10 PFU/ml
Virus yield [12, 19]: 5.0 log10 PFU/ml
Antiviral activity [14]: marked antiviral activity but only for some DNA viruses
